From article PMC7567334 (Environmental Health Perspectives, 2020)
Entries after “also recorded” stand apart in the source; their conditions may differ. Like-named read-outs stand apart in the source and are kept apart here.

Assays:
[1] = target: T1, human (h)AR (Homo sapiens, UniProt P10275); test: AR-EcoScreen hAR transcriptional activation assay, agonist setup; assay type: cell-based
T1 sequence (P10275 1-920): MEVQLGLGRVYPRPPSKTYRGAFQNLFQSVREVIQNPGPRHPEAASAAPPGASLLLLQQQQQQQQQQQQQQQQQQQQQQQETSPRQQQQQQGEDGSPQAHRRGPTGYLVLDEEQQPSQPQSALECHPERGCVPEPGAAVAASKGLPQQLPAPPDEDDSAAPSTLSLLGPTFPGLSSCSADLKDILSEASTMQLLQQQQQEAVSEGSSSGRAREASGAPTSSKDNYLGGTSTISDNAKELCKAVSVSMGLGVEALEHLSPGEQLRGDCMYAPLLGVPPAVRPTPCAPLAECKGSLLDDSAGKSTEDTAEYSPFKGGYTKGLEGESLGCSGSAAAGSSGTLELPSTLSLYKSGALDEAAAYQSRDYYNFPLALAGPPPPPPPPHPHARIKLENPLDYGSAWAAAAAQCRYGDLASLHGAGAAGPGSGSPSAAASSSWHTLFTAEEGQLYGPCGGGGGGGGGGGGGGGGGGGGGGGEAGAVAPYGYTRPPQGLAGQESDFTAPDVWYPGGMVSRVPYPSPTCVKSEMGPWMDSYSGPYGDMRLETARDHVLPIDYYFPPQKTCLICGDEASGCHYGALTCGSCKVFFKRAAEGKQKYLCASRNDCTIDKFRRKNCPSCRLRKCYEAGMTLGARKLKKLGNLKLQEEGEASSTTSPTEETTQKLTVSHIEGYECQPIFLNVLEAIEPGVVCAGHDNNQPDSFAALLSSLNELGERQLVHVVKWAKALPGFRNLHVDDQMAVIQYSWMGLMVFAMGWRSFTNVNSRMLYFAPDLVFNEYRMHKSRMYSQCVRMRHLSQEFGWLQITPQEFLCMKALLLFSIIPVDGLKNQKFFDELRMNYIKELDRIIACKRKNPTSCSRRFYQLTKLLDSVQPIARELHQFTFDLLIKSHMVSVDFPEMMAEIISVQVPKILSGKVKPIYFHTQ

[2] = target: T2, AR (Rattus norvegicus, UniProt P15207); test: PolarScreen AR Competitor binding affinity assay; settings: in words; tested up to 10 μM
T2 construct: purchased Invitrogen
T2 sequence (P15207 651-902 limits assumed): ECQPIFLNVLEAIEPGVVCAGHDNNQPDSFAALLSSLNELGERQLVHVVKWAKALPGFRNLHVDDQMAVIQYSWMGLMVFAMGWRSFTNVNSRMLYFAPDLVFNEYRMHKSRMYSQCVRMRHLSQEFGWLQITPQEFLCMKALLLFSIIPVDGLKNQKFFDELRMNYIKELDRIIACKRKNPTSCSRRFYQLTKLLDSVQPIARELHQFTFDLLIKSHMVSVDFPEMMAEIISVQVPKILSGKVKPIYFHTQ

[3] = test system: TRα and TRβ; test: GH3.TRE-Luc TR reporter assay, agonist setup; assay type: cell-based, rat; settings: 1 μM; vs 0.1% DMSO
[4] = test system: TRα and TRβ; test: GH3.TRE-Luc TR reporter assay, antagonist setup (0.25 nM T3); assay type: cell-based, rat
[5] = test system: Androgen receptor; settings: cited from earlier work
[6] = test system: Estrogen receptor-α; settings: cited from earlier work
[7] = test system: recombinant AR; settings: ref Chen et al. 2008; cited from earlier work
[8] = ref Schebb et al. 2012, cited from earlier work
[9] = test system: fathead minnow (Pimephales promelas); settings: exposure to 10 μg/L; ref Ankley et al. 2010; cited from earlier work
[10] = target: T3, GR (Homo sapiens, UniProt P04150); test: PolarScreen GR Competitor binding affinity assay; design: purchased Invitrogen; settings: in words; tested up to 10 μM
T3 sequence (P04150 1-777): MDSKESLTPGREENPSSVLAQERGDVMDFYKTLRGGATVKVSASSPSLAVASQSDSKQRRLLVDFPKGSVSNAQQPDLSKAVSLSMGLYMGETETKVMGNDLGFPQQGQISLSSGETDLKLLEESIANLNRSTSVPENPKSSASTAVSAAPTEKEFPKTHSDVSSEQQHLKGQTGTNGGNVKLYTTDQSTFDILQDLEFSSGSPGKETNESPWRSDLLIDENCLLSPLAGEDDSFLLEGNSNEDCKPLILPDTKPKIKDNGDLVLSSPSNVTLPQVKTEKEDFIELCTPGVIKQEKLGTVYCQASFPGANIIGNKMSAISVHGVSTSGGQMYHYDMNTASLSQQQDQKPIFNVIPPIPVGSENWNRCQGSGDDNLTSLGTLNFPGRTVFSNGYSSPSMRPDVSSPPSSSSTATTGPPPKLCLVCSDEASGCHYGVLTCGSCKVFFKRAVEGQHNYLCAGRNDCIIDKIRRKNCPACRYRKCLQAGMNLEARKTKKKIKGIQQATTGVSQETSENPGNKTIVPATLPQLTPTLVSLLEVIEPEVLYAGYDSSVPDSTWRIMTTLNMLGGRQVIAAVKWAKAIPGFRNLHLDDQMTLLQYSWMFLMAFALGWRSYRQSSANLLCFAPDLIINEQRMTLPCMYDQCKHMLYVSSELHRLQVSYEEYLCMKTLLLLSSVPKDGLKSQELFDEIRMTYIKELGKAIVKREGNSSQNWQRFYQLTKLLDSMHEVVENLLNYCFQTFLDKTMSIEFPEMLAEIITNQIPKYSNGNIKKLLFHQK

[11] = test system: hERα-HeLa-9903 cells; test: Cell viability (resazurin) in hERα-HeLa-9903 cells
[12] = target: T3, GR; test: MDA-kb2 GR reporter assay, antagonist setup (500 nM HC); assay type: cell-based; design: constitutively expressed high levels of functional GR and AR; host or cells: MDA-kb2
[13] = BG1-ERE cells, ref Ahn et al. 2008

## O=C(Nc1ccc(Cl)cc1)Nc1ccc(Cl)c(Cl)c1 [Triclocarban, 1-(4-Chlorophenyl)-3-(3,4-dichlorophenyl) urea]
[1]; 1 μM, vs 0.1% DMSO
  higher AR RTA than vehicle control: 40.4%
[1]; 2.5 μM, vs 0.1% DMSO
  higher AR RTA over vehicle control: 30.3%
[1]; AR-EcoScreen
  AR agonist activity, call: Agonist
  concentration with AR agonist activity: 1 to 2.5 µM
[2]
  binding affinity assay on isolated AR, result: did not show binding; also recorded: No binding; also recorded: negative
[3]
  baseline TR-mediated transcriptional activity lower than vehicle control (agonist setup): > 50%
[4]; 1 μM, vs 0.1% DMSO with 0.25 nM T3
  lower TR RTA than spike-in control: 44.3%
[4]; GH3.TRE-Luc
  TR antagonist activity, call: Antagonist
  concentration with TR antagonist activity: 1 µM
[5]; HEK-2933Y cells, ref Ahn et al. 2008, Chen et al. 2008
  effect on AR: Enhancer of testosterone activity in HEK-2933Y cells ([Ahn et al. 2008]; [Chen et al. 2008])
[5]; MDA-kb2 cells, ref Christen et al. 2010, Kolšek et al. 2014a, Tarnow et al. 2013
  effect on AR: Enhancer of 5α-dihydrotestosterone activity in MDA-kb2 cells ([Christen et al. 2010]; [Kolšek et al. 2014a]; [Tarnow et al. 2013])
[5]; T47D-ARE cells, ref Ahn et al. 2008
  effect on AR: Enhancer of testosterone activity in T47D-ARE cells ([Ahn et al. 2008])
[6]; [13]
  effect on ER with β-estradiol: Enhancer of β-estradiol activity in BG1-ERE cells ([Ahn et al. 2008])
  effect on ER, compound alone: Agonist in BG1-ERE cells ([Ahn et al. 2008])
[6]; hERα-HeLa-9903 cells, ref Tarnow et al. 2013
  effect on ERα: Enhancer of β-estradiol activity in hERα-HeLa-9903 cells ([Tarnow et al. 2013])
[7]
  binding to recombinant AR: Negative for recombinant AR ([Chen et al. 2008])
[8]
  time of plasma peak after exposure: ≤ 48 h
[8]; six healthy volunteers, triclocarban-containing soaps
  peak plasma concentration: 23 to 530 nM
[9]
  effect in fathead minnow: increased masculinization
[10]
  binding affinity assay on isolated GR, result: did not show binding; also recorded: negative
[11]; hERα-HeLa-9903
  highest noncytotoxic concentration: 5 µM
[11]; hERα-HeLa-9903, ERα agonist dose-response
  highest tested concentration as limited by precipitation and cytotoxicity: 5 µM
[12]; 5 μM, vs 0.1% DMSO with 500 nM HC
  lower GR RTA than spike-in control: 38.9%
[12]; MDA-kb2
  GR antagonist activity, call: Antagonist
  concentration with GR antagonist activity: 5 µM
